The structures appear in SMILES notation.

Data on one compound can be found in publication PMC9599613 (Biomolecules, 2022).

Assay [1] concerns the target T1, butyrylcholinesterase (BChE) (Equus caballus, UniProt P81908).
T1 construct: butyrylcholinesterase (BChE, obtained from equine serum); from tissue; host or cells: equine serum
Description: Anticholinesterase assay (Ellman's), BChE inhibition. It is filed as biochemical, equine. How it is done: This enzyme method relied on the hydrolytic of acetyl cholinethioiodide (ATChI) by acetylcholinesterase and butyrylthiocholine iodide (BTchI) by butyrylcholinesterase. As a result of this breakdown, 5-thio-2-nitrobenoate anions formed. […] The absorption was measured with a spectrophotometer, as per the protocols. […] An amount of 0.1 M phosphate buffer (8.0 ± 0.1 pH) solution was prepared, whose final pH was adjusted by using the KOH solution.
In this assay, 50 µL enzyme solution and 50 µL DTNB reagent were added to 1 mL test samples in a cuvette and then incubated at 30 °C for 15 min. Afterward, a 50 µL substrate solution was added to the mixture.
(Ellman's reagent forms a yellow product with free thiols.)

In the next assay the target is COX-1 (Homo sapiens, UniProt P23219). Briefly: biochemical. The settings on record: read-out: % COX-1 Inhibition. The method, then: (§1) The Cyclooxygenase enzymes (COX-1 and 2) inhibitory potential of our test compounds was determined according to the previously reported procedure. […] The enzyme solutions with a concentration of 0.7–0.8 μg/10 μL (COX-1) and 300 U/mL (COX-2) were prepared. To start the assay, for enzyme activation, 10 µL enzyme solution (kept in a cool temperature of 4 °C for 5 min) and cofactor containing hematin (50 µL, 1 mM), glutathione (0.9 mM) and TMPD in a Tris-buffer (0.1 M) with a pH 8.0 was added. After that, 60 µL of the enzyme solution was added to 20 µL of the test samples of various concentrations and incubated at room temperature for 5 to 10 min. Then, 20 µL of arachidonic acid (30 mM) was added to start the reaction. The mixture was then again incubated for 15 min at 37 °C, and absorbances were measured at 570 nm with UV-visible spectrophotometer. […] The % enzyme inhibitions were calculated by using the previously reported formula.

Another assay has as its target T2, COX-2 (Homo sapiens, UniProt P35354).
T2 sequence (P35354 18-604): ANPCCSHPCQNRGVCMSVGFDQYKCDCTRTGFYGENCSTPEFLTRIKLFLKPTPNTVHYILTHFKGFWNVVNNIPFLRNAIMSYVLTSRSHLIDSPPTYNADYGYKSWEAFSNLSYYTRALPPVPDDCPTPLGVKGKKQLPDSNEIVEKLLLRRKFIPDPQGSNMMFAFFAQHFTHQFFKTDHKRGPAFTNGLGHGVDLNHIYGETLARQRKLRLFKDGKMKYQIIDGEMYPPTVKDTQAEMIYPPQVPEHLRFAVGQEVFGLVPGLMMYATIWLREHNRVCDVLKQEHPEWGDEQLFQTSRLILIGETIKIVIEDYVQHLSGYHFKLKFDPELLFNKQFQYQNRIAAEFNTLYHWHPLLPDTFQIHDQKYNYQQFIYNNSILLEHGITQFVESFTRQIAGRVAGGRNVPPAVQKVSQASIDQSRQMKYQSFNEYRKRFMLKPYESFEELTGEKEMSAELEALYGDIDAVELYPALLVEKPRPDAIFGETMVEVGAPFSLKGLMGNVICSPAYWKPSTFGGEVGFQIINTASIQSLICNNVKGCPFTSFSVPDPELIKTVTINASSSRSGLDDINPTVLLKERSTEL
Briefly: biochemical. How it is done: as §1

A short description of assay [2]: DPPH free radical scavenging assay. The method, then: The antioxidant potentials of isolated compounds (phytosteroids 1 and 2) were determined following the DPPH standard assay. Initially, DPPH (24 mg) was dissolved in methanol (100 mL). Stock solutions of the test compounds were prepared in different dilutions (62.50–1000 μg/mL). From each dilution, 1 mL was mixed with 1 mL of the DPPH solution. The solution mixtures were incubated at room temperature for 0.5 h. Afterward, absorbance was recorded at 517 nm with a UV-visible spectrophotometer. Ascorbic acid was the standard drug, whereas the DPPH solution without the compound was negative control. The percent radical scavenging potential of the test compounds was calculated using the following formula: % DPPH activity=X−X1/X×100 where X = absorbance of the control, and X1 = absorbance of the test compound.
On the technique in general: Loss of DPPH colour is used to gauge radical scavenging.

Chain of COX-1 (P23219 24-599): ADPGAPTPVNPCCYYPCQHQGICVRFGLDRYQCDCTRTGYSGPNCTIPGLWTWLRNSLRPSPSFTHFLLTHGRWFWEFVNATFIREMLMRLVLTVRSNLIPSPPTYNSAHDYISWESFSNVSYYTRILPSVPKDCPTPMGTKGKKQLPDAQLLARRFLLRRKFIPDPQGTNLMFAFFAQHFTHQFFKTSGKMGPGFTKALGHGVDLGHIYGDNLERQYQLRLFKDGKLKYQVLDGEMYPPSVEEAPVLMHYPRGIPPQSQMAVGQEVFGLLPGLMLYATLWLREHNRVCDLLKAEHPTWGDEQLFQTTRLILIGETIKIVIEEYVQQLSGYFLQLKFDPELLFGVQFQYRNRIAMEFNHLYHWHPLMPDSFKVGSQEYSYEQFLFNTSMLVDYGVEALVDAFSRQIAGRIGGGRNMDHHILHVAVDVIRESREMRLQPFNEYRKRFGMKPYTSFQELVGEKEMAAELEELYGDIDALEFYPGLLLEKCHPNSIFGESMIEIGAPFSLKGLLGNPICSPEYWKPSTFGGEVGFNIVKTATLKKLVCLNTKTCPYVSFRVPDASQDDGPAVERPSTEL
T1 sequence (P81908 whole entry): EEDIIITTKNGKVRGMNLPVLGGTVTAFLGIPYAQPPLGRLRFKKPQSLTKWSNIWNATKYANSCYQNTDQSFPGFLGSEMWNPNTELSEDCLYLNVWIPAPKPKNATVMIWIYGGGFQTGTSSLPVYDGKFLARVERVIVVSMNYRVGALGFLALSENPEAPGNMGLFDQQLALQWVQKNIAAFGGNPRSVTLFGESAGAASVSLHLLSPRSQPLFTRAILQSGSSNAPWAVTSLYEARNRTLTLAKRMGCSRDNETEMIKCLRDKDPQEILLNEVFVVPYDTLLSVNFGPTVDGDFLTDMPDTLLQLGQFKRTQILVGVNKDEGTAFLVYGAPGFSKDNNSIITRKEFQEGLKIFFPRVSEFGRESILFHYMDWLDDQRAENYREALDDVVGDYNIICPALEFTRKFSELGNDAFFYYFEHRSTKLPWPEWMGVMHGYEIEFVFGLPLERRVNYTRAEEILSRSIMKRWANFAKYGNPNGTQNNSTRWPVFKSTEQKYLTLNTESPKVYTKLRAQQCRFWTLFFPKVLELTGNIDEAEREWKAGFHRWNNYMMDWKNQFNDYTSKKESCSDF

Broadly, the IC50 is the concentration that inhibits the measured activity by half. For orientation: inhibition means the drop in the measured response relative to a control, in per cent. As for `CCC(CCC(C)C1CCC2C3CCC4=CC(=O)CCC4(C)C3CCC12C)C(C)C` (stereo not drawn) [Compound 2, 17-(5-ethyl-6-methylheptan-2-yl)-10,13-dimethyl-1,2,6,7,8,9,10,11,12,13,14,15,16,17-tetradecahydro-3H-cyclopenta[a]phenanthren-3-one], the figures for the IC50 (in assay [1]; at COX-2 (read-out: COX-2 IC50 (converted))) were 25.8 µM and 20.5 µM, respectively. For the same compound, the “Percent BChE (mean ± SEM)” value in assay [1] (62.5 μg/mL) worked out at 61.35 ± 0.18 %; in assay [1] (125 μg/mL), 66.20 ± 0.15 %; in assay [1] (250 μg/mL), 73.42 ± 0.11 %; in assay [1] (500 μg/mL), 78.62 ± 0.17 %; in assay [1] (1000 μg/mL), 83.53 ± 0.20 %. Moreover, the inhibition at 62.5 µg/mL at COX-1 was determined as 32.5 ± 0.65%; at COX-2 (62.50 μg/mL, read-out: % COX-2 Inhibition), 61.9 ± 1.13%. The inhibition at 125 µg/mL at COX-1 was found to be 37.7 ± 0.45%; at COX-2 (125 μg/mL, read-out: % COX-2 Inhibition) it was 68.3 ± 0.64%. Besides, the inhibition at 250 µg/mL was 44.86 ± 0.02% on COX-1 and 73.34 ± 0.63% at COX-2 (250 μg/mL, read-out: % COX-2 Inhibition). The inhibition at 500 µg/mL on COX-1 worked out at 51.67 ± 0.11%; on COX-2 (500 μg/mL, read-out: % COX-2 Inhibition) it was 78.3 ± 0.64%. Further, the inhibition at 1000 µg/mL worked out at 57.6 ± 1.18% at COX-1 and 83.17 ± 0.72% at COX-2 (1000 μg/mL, read-out: % COX-2 Inhibition). The “DPPH IC50” value in assay [2] is 218.83 µg/mL. In addition, the “Percent DPPH Activity (mean ± SEM)” value amounted to 33.00 ± 1.15 % in assay [2] (62.5 μg/mL); 42.67 ± 0.89 % in assay [2] (125 μg/mL); 49.00 ± 0.58 % in assay [2] (250 μg/mL); 63.03 ± 0.23 % in assay [2] (500 μg/mL); 71.33 ± 0.49 % in assay [2] (1000 μg/mL); 71.33 ± 0.49% in assay [2] (1000 μg/mL, listed as compound 2).
